Measurements from PMC6964649, “Light-controllable dithienylethene-modified cyclic peptides: photoswitching the in vivo toxicity in zebrafish embryos” (Beilstein Journal of Organic Chemistry, 2020).
“And” between values parts separate entries of the source, which are not always exact repeats. Equal values may be shown once. Marks after values point to notes of the source that are not given here. Starred links: 1 amine or outer side, 2 acyl side, 3 side chain; linkers in the order of their positions; H or OH if unused. Positions of bridges follow the written chain, without caps; N, C: chain ends. Non-standard residues stand in square brackets, D forms with d. Residues, ends and D or L forms follow the SMILES beside them. *: point of attachment. X2 = Cc1sc(C(=O)[C@@H]2CCCN2[*:2])cc1C1=C(c2cc(C(=O)[*:1])sc2C)CCC1; Leu(3R-OH) = CC(C)[C@@H](O)[C@H](N)C(=O)O; NMeL = CN[C@@H](CC(C)C)C(=O)O; Isobutyryl = CC(C)C(=O)*; Orn = NCCC[C@H](N)C(=O)O; Dab = NCC[C@H](N)C(=O)O

How the values were obtained:
D. rerio embryos [1] = test: D. rerio embryotoxicity assay, direct application of ring-open photoform; format: in vivo, Danio rerio; settings: direct application of 1 or ring-open photoform, zebrafish embryos at 3 dpf, final DMSO 0.2%, ambient light, value ± STD; for LD50 (open)^1h: 1 h incubation, 12–15 or 18–20 embryos; for LD50 (open)^3h: 3 h incubation; for LD50 (open)^24h: 24 h incubation
Protocol: (§1) To establish the assay for screening the photoswitchable peptides, we first studied the toxicity of our prototype 2 by varying the assay conditions. The parent peptide GS 1 was used as a control. […] We measured the doses causing the death of 50% embryos (LD50). We tested two different assay variations: in one version, the LD50(open) was determined after direct application of 1 or of the ring-open form of 2. In the other variant, the photoswitchable peptide was applied in the ring-closed photoform in the darkness, its LD50(closed) was recorded, and then in situ illumination (“photoactivation”) was applied to switch into the ring-open photoform and obtain the respective LD50(opened) values (see Figure 2 for the study design and the killing curves).
(§2) Figure 2 Two versions of the D. rerio embryotoxicity assay for DAE-modified peptides: timelines, peptide photostates, ages of larvae, and definitions of the measured characteristics. (A) Direct application of the non-photoswitchable parent GS 1 or of the ring-open photoform of our prototype 2, and the corresponding killing curves for 1 (C, top, black) and 2 (C, bottom, red). (B) “Photoactivation” assay: initial application of the ring-closed photoform, incubation in darkness, followed by in situ photoconversion into the ring-open(ed) photoform, with the corresponding killing curves for 1 (D, top) and 2 (D, bottom, green for ring-closed, red for ring-open isomers). The latter panel illustrates the “phototherapeutic safety window” (green arrow) as the difference in toxicity between the ring-closed and the ring-open isomers upon photoactivation.
(§3) Each time, 12–15 or 18–20 zebrafish embryos at 3 dpf were treated by applying the corresponding peptide dissolved in dimethyl sulfoxide (final dimethyl sulfoxide concentration was 0.2%). Double-concentrated peptide stock solutions (64–512 µg/mL) were prepared by weighing lyophilized peptides, dissolving in 10% dimethyl sulfoxide and constructing two-fold dilution series with ten–eleven dilution steps. In the photoconversion experiments, in order to prevent spontaneous photoswitching of the ring-closed peptides by vis light, zebrafish embryos and peptides were kept in the dark before the first readout, and the vials were sealed to avoid evaporation of the embryonic medium (E3) at prolonged incubation times. After the first screen, without exchanging any solution, the vials with embryos and ring-closed photoforms were exposed to intense illumination for 10 min (LUMATEC Superlite 410 light source, λ = 570 nm, irradiance approximately 20 mW/cm^2). Mortality was then determined under ambient light conditions at 1 h and 24 h after the illumination procedure.

D. rerio embryos [2] = test: D. rerio embryotoxicity "photoactivation" assay (ring-closed photoform in darkness, then in situ photoconversion); format: in vivo, Danio rerio; settings: for LD50 (opened)^1h / LD50 (opened)^24h: after 24 h with ring-closed form in dark, in situ illumination 10 min, λ = 570 nm, approx. 20 mW/cm^2; for LD50 (opened)^1h: mortality 1 h after illumination, embryos 4 dpf; for LD50 (opened)^24h: mortality 24 h after illumination, embryos 5 dpf at readout; for LD50(closed)^24h/LD50(open)^24h ratio: phototherapeutic safety window, ring-closed 24 h LD50 (dark) divided by ring-open 24 h LD50 (direct application); for LD50 (closed)^24h: ring-closed photoform applied to embryos at 3 dpf, 24 h in the dark
Protocol: as §1, §2, §3

[3] = sealed vials, E3 medium, 0.2% DMSO, value ± STD

Row | Structure (SMILES) | LD50 (open)^1h (D. rerio embryos [1]) [µg/mL] | LD50 (open)^3h (D. rerio embryos [1]) [µg/mL] | LD50 (open)^24h (D. rerio embryos [1]) [µg/mL] | LD50 (opened)^1h (D. rerio embryos [2]; value ± STD) [µg/mL] | LD50 (opened)^24h (D. rerio embryos [2]; value ± STD) [µg/mL] | LD50(closed)^24h/LD50(open)^24h ratio (D. rerio embryos [2]) | LD50 (closed)^24h (D. rerio embryos [2]; [3]) [µg/mL] | LD50 (closed)^24h (D. rerio embryos [2]; measurement performed once, STD not calculated)
1 | Cc1sc2cc1C1=C(CCC1)c1cc(sc1C)C(=O)[C@@H]1CCCN1C(=O)[C@H](C(C)C)NC(=O)[C@H](CCCN)NC(=O)[C@H](C(C)C)NC(=O)[C@@H]1CCCN1C(=O)[C@@H](Cc1ccccc1)NC(=O)[C@H](C(C)C)NC(=O)[C@H](CCCN)NC(=O)[C@H](CCNC(=O)C(C)C)NC2=O [Peptide 8] ([Dab](Isobutyryl)[Orn]V[dF]PV[Orn]V; linker N-C via X2) | 12.0 ± 0.8 | 5.7 ± 0.4 | 3.9 ± 1.5 | 9.6 ± 5.6 | 3.0 ± 2.7 | 121 and 121.2 | – | –
2 | CC[C@H](C)[C@@H]1NC(=O)c2cc(c(C)s2)C2=C(CCC2)c2cc(sc2C)C(=O)[C@@H]2CCCN2C(=O)[C@H](CC(C)C)NC(=O)[C@H](CCCN)NC(=O)[C@H]([C@@H](C)CC)NC(=O)[C@@H]2CCCN2C(=O)[C@H]2CCCN2C(=O)[C@H](CC(C)C)NC(=O)[C@H](CCCN)NC1=O [Peptide 9] (I[Orn]L[dP]PI[Orn]L; linker N-C via X2) | 2.0 ± 1.1 | 2.1 ± 0.8 | 1.6 ± 0.3 | 2.2 ± 0.5 | 0.8 ± 0.1 | 5.7 | 9.1 ± 2.7 | –
3 | CC[C@H](C)[C@@H]1NC(=O)c2cc(c(C)s2)C2=C(CCC2)c2cc(sc2C)C(=O)[C@@H]2CCCN2C(=O)[C@H]([C@@H](C)CC)NC(=O)[C@H](CCCN)NC(=O)[C@H](CC(C)C)NC(=O)[C@H](CC(C)C)N(C)C(=O)[C@@H](Cc2ccccc2)NC(=O)[C@H]([C@@H](C)CC)NC(=O)[C@H](CCCN)NC1=O [Peptide 10] (I[Orn]I[dF][NMeL]L[Orn]I; linker N-C via X2) | 1.3 ± 1.5 | 1.0 ± 0.6 | 1.0 ± 0.6 | 2.2 ± 1.0 | 1.3 ± 1.5 | 9.5 | 9.5 ± 0.1 | –
4 | Cc1sc2cc1C1=C(CCC1)c1cc(sc1C)C(=O)[C@@H]1CCCN1C(=O)[C@H](C(C)C)NC(=O)[C@H](CCCN)NC(=O)[C@H](C(C)C)NC(=O)[C@@H]1CCCN1C(=O)[C@@H](Cc1ccccc1)NC(=O)[C@H](C(C)C)NC(=O)[C@H](CCCN)NC(=O)[C@H]([C@H](O)C(C)C)NC2=O [Peptide 12] ([Leu(3R-OH)][Orn]V[dF]PV[Orn]V; linker N-C via X2) | 9.2 ± 1.1 | 6.7 ± 0.4 | 3.6 ± 0.5 | 6.2 ± 0.0 | 2.1 ± 1.0 | 21.4 | 77.0 ± 19.4 | –
5 | Cc1sc2cc1C1=C(CCC1)c1cc(sc1C)C(=O)[C@@H]1CCCN1C(=O)[C@H](C(C)C)NC(=O)[C@H](CCCN)NC(=O)[C@H]([C@H](O)C(C)C)NC(=O)[C@@H]1CCCN1C(=O)[C@@H](Cc1ccccc1)NC(=O)[C@H](C(C)C)NC(=O)[C@H](CCCN)NC(=O)[C@H](C(C)C)NC2=O [Peptide 13] (V[Orn]V[dF]P[Leu(3R-OH)][Orn]V; linker N-C via X2) | 4.8 ± 3.8 | 4.3 ± 3.8 | 2.2 ± 1.0 | 6.4 ± 0.4 | 3.4 ± 0.5 | 20.5 | – | 45.0^b µg/mL
6 | Cc1sc2cc1C1=C(CCC1)c1cc(sc1C)C(=O)[C@@H]1CCCN1C(=O)[C@H]([C@H](O)C(C)C)NC(=O)[C@H](CCCN)NC(=O)[C@H](C(C)C)NC(=O)[C@@H]1CCCN1C(=O)[C@@H](Cc1ccccc1)NC(=O)[C@H](C(C)C)NC(=O)[C@H](CCCN)NC(=O)[C@H](C(C)C)NC2=O [Peptide 14] | 8.1 ± 2.0 | 6.2 ± 0.7 | 2.0 ± 0.0 | 9.1 ± 4.2 | 4.6 ± 2.0 | 25.2 | 50.4 ± 27.2 | –
